Data published in PubChem BioAssay (NCI).
Where “and” joins values, the source holds several entries; their conditions need not be identical. Identical values can stand only once.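 Exposure lasted 48 hours, with cells grown in 96-well plates and compounds tested at five concentrations. GI50 is the concentration that inhibits growth by half. TGI marks complete inhibition of growth.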

Key:
Assay in all cases: NCI anticancer screen, dose series, 48 h
MDA-MB-231 breast = tested on: MDA-MB-231 breast
786-0 renal = tested on: 786-0 renal
HCT-15 colon = tested on: HCT-15 colon
SF-295 CNS = tested on: SF-295 CNS
SN12C renal = tested on: SN12C renal
MALME-3M melanoma = tested on: MALME-3M melanoma
SK-MEL-28 melanoma = tested on: SK-MEL-28 melanoma
OVCAR-4 ovarian = tested on: OVCAR-4 ovarian
SK-MEL-5 melanoma = tested on: SK-MEL-5 melanoma
NCI-H522 lung = tested on: NCI-H522 lung

| SMILES | TGI (MDA-MB-231 breast) [µM] | TGI (786-0 renal) [µM] | TGI (HCT-15 colon) [µM] | TGI (SF-295 CNS) [µM] | TGI (SN12C renal) [µM] | TGI (MALME-3M melanoma) [µM] | TGI (SK-MEL-28 melanoma) [µM] | TGI (OVCAR-4 ovarian) [µM] | TGI (SK-MEL-5 melanoma) [µM] | TGI (NCI-H522 lung) | GI50 (NCI-H522 lung) | GI50 (HCT-15 colon) [µM] | GI50 (SF-295 CNS) [µM] | GI50 (SK-MEL-5 melanoma) [µM] | GI50 (SN12C renal) [µM] | GI50 (MALME-3M melanoma) [µM] | GI50 (OVCAR-4 ovarian) [µM] | GI50 (MDA-MB-231 breast) [µM] | GI50 (SK-MEL-28 melanoma) [µM] |
| --- | --- | --- | --- | --- | --- | --- | --- | --- | --- | --- | --- | --- | --- | --- | --- | --- | --- | --- | --- |
| COC(=O)[C@H](Cc1c[nH]c2ccccc12)NC(=O)c1ccc(CNC(=O)/C=C/c2cccc(Oc3ccccc3)c2)cc1 | > 100 | > 100 | > 100 | > 100 | > 100 | > 100 | > 100 | > 100 | > 100 | – | – | – | – | – | – | – | – | – | – |
| Cc1cc(S(=O)(=O)Nc2nc(N)nc(N(C)C)n2)c(SCC(=O)O)cc1Cl | – | > 10 | > 10 | > 10 | > 10 | > 10 | > 10 | > 10 | > 10 | > 10 µM | – | – | – | – | – | – | – | – | – |
| O=C1CC(c2cccc(Br)c2)n2cccc21 (stereo not given) | > 100 | > 100 | > 100 | > 100 | > 100 | – | > 100 | > 100 | – | > 100 µM | – | – | – | – | – | – | – | – | – |
| CCOC(=O)c1sc2[n+](c1C)C(=O)/C(=C/c1ccc([N+](=O)[O-])cc1)S2 | > 100 | 56.8 | – | 64.4 | > 100 | – | > 100 | > 100 | 72.1 | – | – | – | – | – | – | – | – | – | – |
| C=CCO[C@]1(CC=C)C(=O)C(=O)OC1C1COC(C)(C)O1 (stereo not given in full) | > 100 | > 100 | 42 | > 100 | > 100 | 32.3 | – | – | 97.6 | 43.6 µM | – | – | – | – | – | – | – | – | – |
| CN(/N=C/c1ccnc2ccccc12)c1ccc(Cl)cc1[N+](=O)[O-] | > 100 | > 100 | > 100 | > 100 | > 100 | > 100 | – | 69.1 | > 100 | > 100 µM | – | – | – | – | – | – | – | – | – |
| CC/C=C(\C(=C/CC)[N+](=O)[O-])[N+](=O)[O-] | 36.2 | – | – | > 100 | 35.2 | – | 37.1 | 45.7 | 47.9 | – | – | – | – | – | – | – | – | – | – |
| S=C(c1c[nH]c2ccccc12)N1CCN(Cc2ccccc2)CC1 | 32.9 | 29 | 28.1 | 29 | 30.1 | 33.7 | 31 | – | 24.5 | – | – | – | – | – | – | – | – | – | – |
| CC(=O)NC1=C[C@@H]([C@H]2COC(C)(C)O2)OC1=O | – | – | > 100 | > 100 | > 100 | > 100 | > 100 | – | > 100 | > 100 µM | – | – | – | – | – | – | – | – | – |
| COc1ccc(CN=C(N)N)c2ccccc12 | – | > 100 | > 100 | 36.7 | 52.4 | 34.7 | 86.5 | – | 38 | > 100 µM | – | – | – | – | – | – | – | – | – |
| COc1ccc(C2C3COc4ccccc4C3=NN2c2ccccc2)cc1 (stereo not given) | > 100 | > 100 | > 100 | > 100 | – | > 100 | – | > 100 | > 100 | > 100 µM | – | – | – | – | – | – | – | – | – |
| Cc1ccc(N(CC(=O)Nc2ccc(S(=O)(=O)N3CCC(N4CCCC4)CC3)cc2)S(=O)(=O)c2ccc(Cl)cc2)cc1 | – | – | 2.93 | 3.42 | – | – | – | – | 3.14 | 3.77 µM | 1.89 µM | 1.43 | 1.74 | 1.73 | – | – | – | – | – |
| CC1C2(C)OC(=N)C(C#N)(C(c3cccc([N+](=O)[O-])c3)O2)C1(C#N)C#N (stereo not given) | 32 | 45.2 | – | > 100 | 28.1 | 73 | 47.5 | – | 20.9 | – | – | – | – | – | – | – | – | – | – |
| Clc1ccc(C2Nc3ccccc3C3=NCCN32)cc1 (stereo not given) | > 100 | 48.9 | > 100 | 35.4 | > 100 | 32.1 | 34.6 | > 100 | 34.4 | – | – | – | – | – | – | – | – | – | – |
| CCCCCCCCCCCCCCCCOC[C@@H](COC(c1ccccc1)(c1ccccc1)c1ccccc1)O[P+](=S)OC (stereo not given in full) | 5.49 | 19.1 | 22.4 | 6.88 | 21.8 | – | – | 22.9 | 22.4 | 27.5 µM | – | – | – | – | – | – | – | – | – |
| c1csc(C[N+]23CN4CN(CN(C4)C2)C3)c1 | – | 58.8 | 77.2 | > 100 | – | 33.2 | > 100 | 49 | 35.8 | > 100 µM | – | – | – | – | – | – | – | – | – |
| Oc1ccc(Cl)cc1CN1CCN(Cc2cc(Cl)ccc2O)C1 | 10.2 | 5.93 | – | 7.73 | 5.19 | 8.29 | 6.78 | 17 | 2.22 | 13.2 µM | – | – | – | – | – | – | – | – | – |
| C=C(OC1C(C)=C2C(C1OC(=O)CCCCCCC)C(C)(OC(C)=O)CC(OC(=O)CCC)C1(O)C2OC(=O)C1(C)O)/C(C)=C/C (stereo not given) | – | – | 15 | 3.22 | 1.91 | 0.131 | 3.97 | 0.512 | – | 1.11 µM | – | 0.0842 | < 0.0001 | < 0.0001 | 0.0105 | 0.000907 | < 0.0001 | – | – |
| Nc1nc(N)c2cc(NCc3ccc(Cl)c(Cl)c3)ccc2n1 | 2.58 | – | 2.02 | 2.61 | 2.89 | – | 3.15 | 2.61 | 2.83 | 2.77 µM | 1.31 µM | 0.765 | 1.22 | 1.5 | 1.5 | – | 1.34 | 1.3 | 1.77 |
| N#Cc1c(-c2ccccc2)[nH]c(=O)n(C2OC(CO)C(O)C(O)C2O)c1=O (stereo not given) | > 100 | > 100 | > 100 | > 100 | > 100 | – | > 100 | > 100 | > 100 | 63.5 µM and > 100 µM | 27.6 µM and > 100 µM | – | – | – | – | – | – | – | – |
| O=C(N/N=C(/COc1ccc([N+](=O)[O-])cc1)N=Cc1ccncc1)c1ccncc1 | > 100 | > 100 | > 100 | > 100 | > 100 | > 100 | > 100 | > 100 | – | > 100 µM | – | – | – | – | – | – | – | – | – |
| CC(=O)OC[C@@H](OC(C)=O)[C@H](OC(C)=O)[C@@H]1OC(C)(C)O[C@@H]1C1SCCCS1 | > 100 | > 100 | – | > 100 | – | > 100 | > 100 | > 100 | > 100 | > 100 µM | – | – | – | – | – | – | – | – | – |
| CCOC(=O)CC1(c2cccc3ccccc23)OC(=O)c2ccccc21 (stereo not given) | – | – | > 100 | > 100 | > 100 | 96.2 | > 100 | > 100 | 63.8 | 79.8 µM | – | – | – | – | – | – | – | – | – |
